Data published in patent publication US12286429B2, “5-oxo-1,2,3,5,8,8a-hexahydroindolizine-3-carboxamide derivatives useful as a factor XIa inhibitors” (Janssen Pharmaceutica NV, priority 2021, dated 2025).

How the values were obtained:
Factor XIa = Factor XIa (Homo sapiens, UniProt P03951); assay: Factor XIa inhibition assay utilizing a fluorophore-quencher pair peptide substrate (FLINT); assay type: biochemical; conditions: 11-point, 3-fold serial dilution, top 100 nM; 30 min preincubation; 15 μM 5Fam-KLTRAETV-K5Tamra substrate; kinetic reads over 30 min; read-out: FXIa Inhibition IC50
Chain of Factor XIa (P03951 388-625 limits assumed): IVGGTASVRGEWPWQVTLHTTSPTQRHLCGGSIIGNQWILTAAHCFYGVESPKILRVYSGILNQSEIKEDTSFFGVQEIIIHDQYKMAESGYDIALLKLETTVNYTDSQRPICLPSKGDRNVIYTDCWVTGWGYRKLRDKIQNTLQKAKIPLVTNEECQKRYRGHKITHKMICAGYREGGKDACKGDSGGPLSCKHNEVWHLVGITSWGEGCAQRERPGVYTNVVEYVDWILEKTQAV
Chain of Factor XIa (P03951 19-387 partner limits assumed): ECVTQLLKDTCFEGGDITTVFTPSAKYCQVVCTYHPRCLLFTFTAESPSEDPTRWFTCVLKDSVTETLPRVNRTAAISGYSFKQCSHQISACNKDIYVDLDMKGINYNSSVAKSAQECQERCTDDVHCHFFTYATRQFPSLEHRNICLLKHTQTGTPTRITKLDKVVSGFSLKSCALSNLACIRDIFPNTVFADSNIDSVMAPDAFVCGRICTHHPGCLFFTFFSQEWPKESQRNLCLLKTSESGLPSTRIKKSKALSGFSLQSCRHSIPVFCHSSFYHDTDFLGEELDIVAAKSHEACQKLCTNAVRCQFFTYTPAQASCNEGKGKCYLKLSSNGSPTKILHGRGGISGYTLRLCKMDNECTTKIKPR
In short: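 FXIa ([…]) preincubated 30 min with compound (11-point, 3-fold, top 100 nM, 2% DMSO) in Tris pH 7.5, NaCl, CaCl2, BSA, CHAPS; 15 μM 5Fam-KLTRAETV-K5Tamra substrate then added. Fluorescence (485/520 nm) read kinetically over 30 min at room temperature; IC50 by 4-parameter fit.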

human plasma kallikrein = human plasma kallikrein (Homo sapiens, UniProt P03952); assay: Kallikrein inhibition assay utilizing a quenched AMC peptide substrate (FLINT); assay type: biochemical; conditions: 11-point, 3-fold serial dilution, top 1 μM; 30 min preincubation; 2 nM kallikrein; 50 μM Z-Gly-Pro-Arg-AMC; kinetic reads over 30 min
Chain of human plasma kallikrein (P03952 391-638 limits assumed): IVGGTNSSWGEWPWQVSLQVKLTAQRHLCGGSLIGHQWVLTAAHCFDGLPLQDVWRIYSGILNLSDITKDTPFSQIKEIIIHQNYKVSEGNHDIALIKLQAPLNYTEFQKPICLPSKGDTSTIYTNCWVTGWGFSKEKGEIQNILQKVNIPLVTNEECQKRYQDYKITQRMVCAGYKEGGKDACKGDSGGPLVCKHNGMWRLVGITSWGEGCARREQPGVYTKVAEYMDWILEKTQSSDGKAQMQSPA
Chain of human plasma kallikrein (P03952 20-390 partner limits assumed): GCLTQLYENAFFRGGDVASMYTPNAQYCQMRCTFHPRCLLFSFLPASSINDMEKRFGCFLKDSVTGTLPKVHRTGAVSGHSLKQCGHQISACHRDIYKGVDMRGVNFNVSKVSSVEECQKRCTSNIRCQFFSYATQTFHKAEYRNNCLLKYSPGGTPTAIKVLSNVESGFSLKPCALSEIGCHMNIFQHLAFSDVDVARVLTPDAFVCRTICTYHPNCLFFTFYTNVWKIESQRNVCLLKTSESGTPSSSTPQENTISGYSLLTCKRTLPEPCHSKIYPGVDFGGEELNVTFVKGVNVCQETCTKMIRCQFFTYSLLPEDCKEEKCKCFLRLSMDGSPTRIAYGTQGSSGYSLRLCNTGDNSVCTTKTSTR
In short: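 Human plasma kallikrein (2 nM final) was pre-incubated 30 min at room temperature with compound (11-point 3-fold series, top 1 μM, 2% DMSO) in Tris pH 7.5, NaCl, CaCl2, BSA, CHAPS buffer. Reaction started with 50 μM Z-Gly-Pro-Arg-AMC (KM 40 μM), and fluorescence (340/440 nm) was read kinetically over 30 min. IC50 came from a 4-parameter logistic fit.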

Row | IC50 (Factor XIa) | IC50 (human plasma kallikrein) | Structure (SMILES)
1 | 25 nM | 45.3 nM | Cn1nc2ccc(NC(=O)[C@@H]3CC[C@@H]4CC(c5c(-n6cnnn6)ccc(Cl)c5F)=CC(=O)N43)cc2n1 [ID No. 16, (3S,8aR)-7-(3-Chloro-2-fluoro-6-(1H-tetrazol-1-yl)phenyl)-N-(2-methyl-2H-benzo[d][1,2,3]triazol-5-yl)-5-oxo-1,2,3,5,8,8a-hexahydroindolizine-3-carboxamide]
2 | 16.7 nM | 36.1 nM | O=C(Nc1ccc2[nH]nc(O)c2c1)[C@@H]1CCC2CC(c3c(-n4cnnn4)ccc(Cl)c3F)=CC(=O)N21 (mixture of isomers) [ID No. 57, (3S)-7-[3-Chloro-2-fluoro-6-(tetrazol-1-yl)phenyl]-N-(3-hydroxy-1H-indazol-5-yl)-5-oxo-2,3,8,8a-tetrahydro-1H-indolizine-3-carboxamide]
3 | > 50 nM | 497 nM | Cn1nc2ccc(NC(=O)C3CCC4CC(c5c(-n6cc(C(F)(F)F)nn6)ccc(Cl)c5F)=CC(=O)N43)cc2n1 (stereo not drawn) [compound 106]
4 | 7.5 nM | 53 nM | NC(=O)c1ccc(NC(=O)[C@@H]2CCC3CC(c4c(-n5cnnn5)ccc(Cl)c4F)=CC(=O)N32)cc1F (mixture of isomers) [ID No. 39, (3S)—N-(4-Carbamoyl-3-fluorophenyl)-7-(3-chloro-2-fluoro-6-(1H-tetrazol-1-yl)phenyl)-5-oxo-1,2,3,5,8,8a-hexahydroindolizine-3-carboxamide]
5 | 22.7 nM | 59.6 nM | CCn1cnc2ccc(NC(=O)[C@@H]3CC[C@@H]4CC(c5c(-n6cnnn6)ccc(Cl)c5F)=CC(=O)N43)cc2c1=O [ID No. 14, (3S,8aR)-7-(3-Chloro-2-fluoro-6-(1H-tetrazol-1-yl)phenyl)-N-(3-ethyl-4-oxo-3,4-dihydroquinazolin-6-yl)-5-oxo-1,2,3,5,8,8a-hexahydroindolizine-3-carboxamide]
6 | 23.3 nM | 274 nM | O=C(Nc1ccc(-c2nc(=O)o[nH]2)cc1F)[C@@H]1CCC2CC(c3c(-n4cnnn4)ccc(Cl)c3F)=CC(=O)N21 (mixture of isomers) [ID No. 47, (3S)-7-(3-Chloro-2-fluoro-6-(1H-tetrazol-1-yl)phenyl)-N-(2-fluoro-4-(5-oxo-2,5-dihydro-1,2,4-oxadiazol-3-yl)phenyl)-5-oxo-1,2,3,5,8,8a-hexahydroindolizine-3-carboxamide]
7 | 10.8 nM | 22.5 nM | O=C(Nc1ccc2ncc(F)cc2c1)[C@@H]1CC[C@@H]2CC(c3c(-n4cnnn4)ccc(Cl)c3F)=CC(=O)N21 [ID No. 10, (3S,8aR)-7-(3-Chloro-2-fluoro-6-(1H-tetrazol-1-yl)phenyl)-N-(3-fluoroquinolin-6-yl)-5-oxo-1,2,3,5,8,8a-hexahydroindolizine-3-carboxamide]
8 | 11.5 nM | 59 nM | O=C(Nc1ccc2ncoc2c1)[C@@H]1CCC2CC(c3c(-n4cnnn4)ccc(Cl)c3F)=CC(=O)N21 (mixture of isomers) [ID No. 54, (3S)—N-(Benzo[d]oxazol-6-yl)-7-(3-chloro-2-fluoro-6-(1H-tetrazol-1-yl)phenyl)-5-oxo-1,2,3,5,8,8a-hexahydroindolizine-3-carboxamide]
9 | 3.4 nM | 60.1 nM | O=C(Nc1ccc(-c2noc(=O)[nH]2)cc1)[C@@H]1CC[C@@H]2CC(c3c(-n4cnnn4)ccc(Cl)c3F)=CC(=O)N21 [ID No. 17, (3S,8aR)-7-(3-Chloro-2-fluoro-6-(1H-tetrazol-1-yl)phenyl)-5-oxo-N-(4-(5-oxo-4,5-dihydro-1,2,4-oxadiazol-3-yl)phenyl)-1,2,3,5,8,8a-hexahydroindolizine-3-carboxamide]
10 | 36.3 nM | 279 nM | CN(O)C(=O)c1ccc(NC(=O)[C@@H]2CCC3CC(c4c(-n5cnnn5)ccc(Cl)c4F)=CC(=O)N32)cc1 (mixture of isomers) [ID No. 34, (3S)-7-(3-Chloro-2-fluoro-6-(1H-tetrazol-1-yl)phenyl)-N-(4-(hydroxy(methyl)carbamoyl)phenyl)-5-oxo-1,2,3,5,8,8a-hexahydroindolizine-3-carboxamide]
11 | 0.6 nM | 20.3 nM | O=C(Nc1ccc(-c2nc(=O)o[nH]2)cc1)[C@@H]1CCC2CC(c3c(-n4cnnn4)ccc(Cl)c3F)=CC(=O)N21 (single isomer, unassigned) [ID No. 63, (3S,8aR*)-7-[3-Chloro-2-fluoro-6-(tetrazol-1-yl)phenyl]-5-oxo-N-[4-(5-oxo-2H-1,2,4-oxadiazol-3-yl)phenyl]-2,3,8,8a-tetrahydro-1H-indolizine-3-carboxamide]
12 | 0.3 nM | 22.2 nM | O=C(Nc1ccc(-c2nc(=O)o[nH]2)cc1)[C@@H]1CCC2CC(c3c(-n4cnnn4)ccc(Cl)c3F)=CC(=O)N21 (mixture of isomers) [ID No. 76, (3S)-7-[3-Chloro-2-fluoro-6-(tetrazol-1-yl)phenyl]-5-oxo-N-[4-(5-oxo-2H-1,2,4-oxadiazol-3-yl)phenyl]-2,3,8,8a-tetrahydro-1H-indolizine-3-carboxamide]
13 | 38.2 nM | 76.1 nM | NC(=O)c1ccc(NC(=O)[C@@H]2CC[C@@H]3CC(c4c(-n5cc(C(F)(F)F)nn5)ccc(Cl)c4F)=CC(=O)N32)cc1F [ID No. 24, (3S,8aR)—N-(4-Carbamoyl-3-fluorophenyl)-7-(3-chloro-2-fluoro-6-(4-(trifluoromethyl)-1H-1,2,3-triazol-1-yl)phenyl)-5-oxo-1,2,3,5,8,8a-hexahydroindolizine-3-carboxamide]
14 | > 95 nM | 128 nM | O=C(Nc1ccc2c(c1)CN(O)C2=O)[C@@H]1CCC2CC(c3c(-n4cnnn4)ccc(Cl)c3F)=CC(=O)N21 (mixture of isomers) [ID No. 30, (3S)-7-(3-Chloro-2-fluoro-6-(1H-tetrazol-1-yl)phenyl)-N-(2-hydroxy-1-oxoisoindolin-5-yl)-5-oxo-1,2,3,5,8,8a-hexahydroindolizine-3-carboxamide]
15 | 84.8 nM | 436 nM | Cn1nnnc1-c1ccc(NC(=O)[C@@H]2CCC3CC(c4c(-n5cnnn5)ccc(Cl)c4F)=CC(=O)N32)cc1 (mixture of isomers) [ID No. 70, (3S)-7-[3-Chloro-2-fluoro-6-(tetrazol-1-yl)phenyl]-N-[4-(1-methyltetrazol-5-yl)phenyl]-5-oxo-2,3,8,8a-tetrahydro-1H-indolizine-3-carboxamide]
16 | 0.8 nM | 19.2 nM | O=C(Nc1ccc(-c2nnn[nH]2)cc1)[C@@H]1CCC2CC(c3c(-n4cnnn4)ccc(Cl)c3F)=CC(=O)N21 (single isomer, unassigned) [ID No. 66, (3S,8aR*)-7-[3-Chloro-2-fluoro-6-(tetrazol-1-yl)phenyl]-5-oxo-N-[4-(1H-tetrazol-5-yl)phenyl]-2,3,8,8a-tetrahydro-1H-indolizine-3-carboxamide]
17 | 8 nM | 14.3 nM | Nc1ccc2cc(NC(=O)[C@@H]3CC[C@@H]4CC(c5c(-n6cnnn6)ccc(Cl)c5F)=CC(=O)N43)ccc2n1 [ID No. 6, (3S,8aR)—N-(2-Aminoquinolin-6-yl)-7-(3-chloro-2-fluoro-6-(1H-tetrazol-1-yl)phenyl)-5-oxo-1,2,3,5,8,8a-hexahydroindolizine-3-carboxamide]
18 | 38.8 nM | 66.2 nM | CN(C)c1ccc2cc(NC(=O)[C@@H]3CC[C@@H]4CC(c5c(-n6cnnn6)ccc(Cl)c5F)=CC(=O)N43)ccc2n1 [ID No. 11, (3S,8aR)-7-(3-Chloro-2-fluoro-6-(1H-tetrazol-1-yl)phenyl)-N-(2-(dimethylamino)quinolin-6-yl)-5-oxo-1,2,3,5,8,8a-hexahydroindolizine-3-carboxamide]
19 | > 50 nM | 637 nM | CN(C)c1ccnc2ccc(NC(=O)C3CCC4CC(c5c(-n6cc(C(F)(F)F)nn6)ccc(Cl)c5F)=CC(=O)N43)cc12 (stereo not drawn) [compound 89]
20 | 8.3 nM | 31.1 nM | O=C(Nc1ccc2nn(C(F)F)cc2c1)[C@@H]1CC[C@@H]2CC(c3c(-n4cnnn4)ccc(Cl)c3F)=CC(=O)N21 (single isomer, unassigned) [ID No. 23]
21 | 180 nM | 611 nM | CO[C@H]1C[C@@H](C(=O)Nc2ccc3ncccc3c2)N2C(=O)C=C(c3c(-n4cnnn4)ccc(Cl)c3F)CC12 (mixture of isomers) [ID No. 29, (1S,3S)-7-[3-Chloro-2-fluoro-6-(tetrazol-1-yl)phenyl]-1-methoxy-5-oxo-N-(6-quinolyl)-2,3,8,8a-tetrahydro-1H-indolizine-3-carboxamide]
22 | 36.8 nM | 55.7 nM | O=C(Nc1ccc2c(c1)C(F)(F)C(=O)N2)[C@@H]1CC[C@@H]2CC(c3c(-n4cnnn4)ccc(Cl)c3F)=CC(=O)N21 [ID No. 15, (3S,8aR)-7-(3-Chloro-2-fluoro-6-(1H-tetrazol-1-yl)phenyl)-N-(3,3-difluoro-2-oxoindolin-5-yl)-5-oxo-1,2,3,5,8,8a-hexahydroindolizine-3-carboxamide]
23 | > 50 nM | 190 nM | CCOCCOc1ccc2cc(NC(=O)[C@@H]3CCC4CC(c5c(-n6cc(C(F)(F)F)nn6)ccc(Cl)c5F)=CC(=O)N43)ccc2n1 (mixture of isomers) [compound 107]
24 | 25.9 nM | 112 nM | Cc1nc(-c2ccc(NC(=O)[C@@H]3CC[C@@H]4CC(c5c(-n6cnnn6)ccc(Cl)c5F)=CC(=O)N43)cc2)co1 [ID No. 20, (3S,8aR)-7-(3-Chloro-2-fluoro-6-(1H-tetrazol-1-yl)phenyl)-N-(4-(2-methyloxazol-4-yl)phenyl)-5-oxo-1,2,3,5,8,8a-hexahydroindolizine-3-carboxamide]
